Test results published in US5041441A, “Method of chemotherapy using 1-phenyl-2-decanoylamino-3-morpholino-1-propanol” (The Regents of the University of Michigan, priority 1988, dated 1991).
Marks after values point to notes of the source that are not given here.

How the values were obtained:
[1] = test system: Ehrlich ascites tumor cells (EATC); experiment: Antitumor activity in mice inoculated i.p. with Ehrlich ascites tumor cells; type: in vivo; conditions: for 50-day cure (mice) / Solid Tumors at 50 days (mice): 8 mice; for Acute, initial toxicity observation: C18 (stearoyl) homolog, 0.15 mmol/kg on day 1; for Normal at 60 days / Solid tumors at 60 days: L-threo isomer; for Weight Change after 10 days: mouse, in vivo
Description: Male mice of the ICR (Swiss Hsd) strain from Harlan--Sprague Dawley (Indianapolis, Ind.) were injected intraperitoneal with saline containing 2×10^6 Ehrlich ascites tumor cells (EATC) on day 0. […] Treatment began 24 hours later with intraperitoneal injections of saline or inhibitor, either as the acetate salt or as the hydrochloride salt. The inhibitor was dissolved in 40° C. saline and injected at 10 μl/g body weight. In the case of drugs that were difficult to dissolve, e.g. the hydrochlorides, a non-ionic, low toxicity detergent was included to emulsify the drug, making it suitable for injection. Two cages of mice were assigned to each control or experimental group and fed standard lab chow. In almost all cases, the mice were injected daily for a total of 10 doses.
The 1-tailed Student t-test for unpaired samples was used for statistical analysis.
The experimental procedure set forth above was again followed with homologs of PDMP made from fatty acids of 10 to 18 carbon atom length. The compounds were not resolved into D- and L-forms but the threo stereomers were used as the hydrochlorides. All samples were emulsified in Myrj 52 (15 mg/kg).

[2] = biological target: T1, glucosyltransferase (EATC enzyme) (Mus musculus, UniProt O88693); experiment: Glucosyltransferase assay, microsomes from EATC; type: biochemical
T1 construct: Microsomes from EATC (0.50 mg protein) required 20 μM PDMP to reduce the glucosyltransferase activity in half; endogenous in cells; host or cells: Ehrlich ascites tumor cells (EATC), microsomes
T1 sequence (O88693 1-394): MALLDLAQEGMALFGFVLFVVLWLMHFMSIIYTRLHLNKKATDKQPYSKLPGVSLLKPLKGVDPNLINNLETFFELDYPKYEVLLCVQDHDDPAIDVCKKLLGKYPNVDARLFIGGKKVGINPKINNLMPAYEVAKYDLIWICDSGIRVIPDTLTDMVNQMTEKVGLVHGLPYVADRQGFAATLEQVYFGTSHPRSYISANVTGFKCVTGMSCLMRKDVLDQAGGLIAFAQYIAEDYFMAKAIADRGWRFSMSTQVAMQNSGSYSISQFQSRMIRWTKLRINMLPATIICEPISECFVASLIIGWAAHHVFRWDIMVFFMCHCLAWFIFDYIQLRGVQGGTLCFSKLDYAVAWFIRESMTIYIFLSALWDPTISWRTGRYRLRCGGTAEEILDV
Description: Evidence that D-threo-PDMP acts to inhibit GlcCer biosynthesis was provided as follows from assay of glucosyltransferase. Microsomes as source of enzyme were prepared by highspeed centrifugation and stored at -70° C. before use. The incubations were at 37° C. for 30 minutes with microsomes, ATP, liposomal octanoyl sphingosine, UDP-[^3 H]glu, Mg^2+, and dithioerythritol. Microsomes from EATC (0.50 mg protein) required 20 μM PDMP to reduce the glucosyltransferase activity in half. The microsomes from normal liver (72 μg protein) required 5 μM D-threo-PDMP. While the EATC enzyme seems to be less sensitive to the inhibitor, the intraperitoneal concentration of inhibitor is initially very high.

Ehrlich ascites cells [3] = experiment: Growth of Ehrlich ascites cells in vivo (volume of packed cells); conditions: for Volume of packed cells / Volume of packed cells, % of controls: treatment begun 3 days after EATC inoculation, 5 injections, killed 1 day later, 100 mg/kg
Description: A suspension of GlcCer was injected into one group of 10 mice inoculated 1 day earlier with EATC as before. Injectable suspensions of GlcCer and galactosylceramide (GalCer) were prepared by mechanical grinding in saline (10 mg/ml) and injected at a dosage of 100 mg/kg. In one experiment, the mice were killed 1 day after the last of eight daily injections and the ascites cells were flushed out of the abdomen with buffered saline and washed.
Treatments were begun 3 days after EATC inoculation. Only 5 injections were given and the mice were killed 1 day later.

Ehrlich ascites cells [4] = conditions: mice bearing Ehrlich ascites carcinoma cells, injection of glucosylceramide (background); cited from earlier work
[5] = DL-threo hydrochloride in Myrj 52 emulsion, 0.3 mmol/kg, ten daily injections
[6] = DL-threo hydrochloride in Myrj 52 emulsion, C16 0.15 mmol/kg, six injections
[7] = DL-threo hydrochloride in Myrj 52 emulsion, C18 0.15 mmol/kg on day 1 and 0.075 mmol/kg the remaining 9 days

## CCCCCCCCCC(=O)N[C@H](CN1CCOCC1)[C@H](O)c1ccccc1 (relative stereo) [compound 10, 1-Phenyl-2-Decanoylamino-3-Morpholino-1-Propanol]
[1]; [5]
  50-day cure (mice): 5
  Solid Tumors at 50 days (mice): 1
[1]; decanoyl group, 0.3 mmol/kg in Myrj emulsion
  Mice that developed small solid tumors that were later resorbed: two
[1]; dosage of 128 mg/kg, Myrj emulsion
  Long-term cure rate: 50%

## CCCCCCCCCCCC(=O)N[C@H](CN1CCOCC1)[C@H](O)c1ccccc1 (relative stereo) [compound 12]
[1]; [5]
  Body Weight Increase at the 10-day point: -0.1 g
  50-day cure (mice): 2
  Solid Tumors at 50 days (mice): 2

## CCCCCCCCCCCCCC(=O)N[C@H](CN1CCOCC1)[C@H](O)c1ccccc1 (relative stereo) [compound 14]
[1]; [5]
  Body Weight Increase at the 10-day point: 0.1 g
  50-day cure (mice): 1
  Solid Tumors at 50 days (mice): 4

## CCCCCCCCCCCCCCCC(=O)N[C@H](CN1CCOCC1)[C@H](O)c1ccccc1 (relative stereo) [compound 16]
[1]; [6]
  Body Weight Increase at the 10-day point: -1.1 g
  Survival after 10 days: 5/8
  50-day cure (mice): 3
  Solid Tumors at 50 days (mice): 1
[1]; palmitoyl homolog, daily injections in Myrj 52
  Toxicity observation: too toxic to be used more than six times

## CCCCCCCCCCCCCCCCCC(=O)N[C@H](CN1CCOCC1)[C@H](O)c1ccccc1 (relative stereo) [compound 18]
[1]
  Acute, initial toxicity observation: high initial weight loss
[1]; listed as C18 homolog
  Acute, initial toxicity observation: absence of an acute, initial toxicity reaction
[1]; [7]
  Body Weight Increase at the 10-day point: 2.5 g
  50-day cure (mice): 6
  Solid Tumors at 50 days (mice): 0

## CCCCCCCCCC(=O)N[C@@H](CN1CCOCC1)[C@@H](O)c1ccccc1 [L-threo-PDMP, 1-Phenyl-2-Decanoylamino-3-Morpholino-1-Propanol]
[2]; general statement
  Inhibition of ceramide glucosyltransferase: ineffective
[2]; microsomes from EATC
  Inhibition of the EATC enzyme: did not inhibit
[1]; 60-day observation period, 75-150 mg/kg
  Effectiveness in curing the tumors compared with the D-enantiomer: more effective in curing the tumors than the D-enantiomer
[1]; 75-150 mg/kg
  Losses of animals during the initial 10 days of treatment: no losses of animals
[1]; 75-150 mg/kg, 10 days
  Ascites fluid in treated mice: At no time was ascites fluid visible
[1]; 75 mg/kg, 10 days
  Normal at 60 days: 4 # of mice
  Solid tumors at 60 days: 2 # of mice
[1]; 100 mg/kg, 10 days
  Normal at 60 days: 4 # of mice
  Solid tumors at 60 days: 3 # of mice
[1]; 125 mg/kg, 10 days
  Normal at 60 days: 2 # of mice
  Solid tumors at 60 days: 3 # of mice
[1]; 150 mg/kg, 10 days
  Normal at 60 days: 5 # of mice
  Solid tumors at 60 days: 3 # of mice
[1]; at the higher dosages
  Mice in which disappearance of solid tumors was observed: two
[1]; compared with the D-isomer
  Acute toxicity reactions of the mice: distinctly smaller than with the D-isomer
[1]; 75 mg/kg
  Weight Change after 10 days: 3.2 g
[1]; 100 mg/kg
  Weight Change after 10 days: 1.9 g
[1]; 125 mg/kg
  Weight Change after 10 days: 0.8 g
[1]; 150 mg/kg
  Weight Change after 10 days: -0.2 g

## galactosylceramide [GalCer]
Ehrlich ascites cells [3]; Experiment 7, 100 mg/kg
  Stimulation of EATC growth: no stimulation of EATC growth
Ehrlich ascites cells [3]
  Volume of packed cells: 2.29 ± 1.21 ml/mouse
  Volume of packed cells, % of controls: 84 % of controls

## glucosylceramide [GlcCer]
Ehrlich ascites cells [4]
  Increase in the number of cancer cells: greater than 50%
Ehrlich ascites cells [3]; EATC mice, eight daily injections from day 1, killed 1 day after the last, GlcCer 100 mg/kg, saline controls 3.07 ml
  Packed, centrifuged ascites cells (mean value per mouse): 4.68 mL
Ehrlich ascites cells [3]; EATC mice, eight daily injections, GlcCer 100 mg/kg, p less than 0.05
  Increase of packed cells over saline-injected controls: 52%
Ehrlich ascites cells [3]
  Volume of packed cells: 4.13 ± 0.63 ml/mouse
  Volume of packed cells, % of controls: 152 % of controls
